Test results published in ChEMBL document CHEMBL5505984, “Carbazole to indolazepinone scaffold morphing leads to potent cell-active dengue antivirals” (Eur J Med Chem, 2024).
“And” between values parts separate entries of the source, which are not always exact repeats. Equal entries are not always repeated. The source made the active and inactive calls. The calls are words filed in the database; no cut-off is given here.

How the values were obtained:
[1] = tested on: dengue virus type 2; test: Antiviral activity Dengue virus 2 by cell based assay; format: functional, organism-based
[2] = tested on: dengue virus type 2; test: Antiviral activity against Dengue virus 2 infected in human Huh-7 cells assessed as clearance of viral RNA relative to control; format: functional; design: concentration or dose not given beside the values
[3] = tested on: dengue virus type 2; test: Antiviral activity against Dengue virus 2 infected in human Huh-7 cells assessed as clearance of viral RNA at 10 uM; format: functional, organism-based
[4] = tested on: dengue virus type 2; test: Antiviral activity against Dengue virus 2 infected in human Huh-7 cells assessed as clearance of viral RNA at 100 uM; format: functional, organism-based
[5] = tested on: dengue virus type 1; test: Antiviral activity Dengue virus 1 by cell based assay; format: functional, organism-based
[6] = tested on: dengue virus type 2; test: Antiviral activity Dengue virus 2 D2Y10 by cell based assay; format: functional, organism-based
[7] = tested on: dengue virus type 3; test: Antiviral activity Dengue virus 3 by cell based assay; format: functional, organism-based
[8] = tested on: dengue virus type 4; test: Antiviral activity Dengue virus 4 by cell based assay; format: functional, organism-based
[9] = tested on: Zika virus; test: Antiviral activity Zika virus by cell based assay; format: functional, organism-based
[10] = tested on: dengue virus type 2; test: Antiviral activity against Dengue virus 2 infected in human Huh-7 cells assessed as inhibition of plaque formation relative to control; format: functional
[11] = tested on: dengue virus type 2; test: Antiviral activity against Dengue virus 2 D2Y10 infected in human THP-1 cells assessed as inhibition of secondary antibody dependent enhancement-driven infection relative to control; format: functional
[12] = tested on: dengue virus type 2; test: Antiviral activity against Dengue virus 2 infected in human Huh-7 cells assessed as reduction in plaque reduction relative to control; format: functional; design: scale not given: the % may be the effect or the level left

## N/C(=N\O)c1cccc(NC(=O)c2cn(Cc3ccc(Br)cc3)c3ccc(-c4cccc(/C(N)=N/O)c4)cc23)c1
[1]
  EC50: 4480 nM
[2]
  Activity: >95%

## N/C(=N\O)c1cccc(NC(=O)c2cn(CCn3cc(Br)cn3)c3ccc(-c4cccc(/C(N)=N/O)c4)cc23)c1
[1]
  EC50: 1830 nM
[3]
  Activity: inactive

## N/C(=N\O)c1cccc(-c2ccc3c(C(=O)N4CCN(c5cccc(/C(N)=N/O)c5)CC4)cn(Cc4ccc(Br)nc4)c3c2)c1
[1]
  EC50: 1000 nM
[4]
  Activity: inactive

## N/C(=N\O)c1ccc(CN2CCc3cn(Cc4cccc(Br)c4)c4cc(-c5cccc(/C(N)=N/O)c5)cc(c34)C2=O)cc1
[5]
  EC50: 1030 nM
[1]
  EC50: 660 nM
[6]
  EC50: 380 nM
[7]
  EC50: 1440 nM
[8]
  EC50: 1240 nM
[9]
  EC50: 3400 nM
[10]
  inhibition (INH): 95%
[11]
  inhibition (INH): 100%
[2]
  Activity: >95%

## N/C(=N\O)c1cccc(CNC(=O)c2cn(Cc3cccc(Br)c3)c3cc(-c4cccc(/C(N)=N/O)c4)ccc23)c1
[1]
  EC50: 6900 nM
[2]
  Activity: >95%

## N/C(=N\O)c1cccc(-c2ccc3c(C(=O)N4CCN(c5cccc(/C(N)=N/O)c5)CC4)cn(Cc4cccc(Br)c4)c3c2)c1
[1]
  EC50: 1230 nM
[4]
  Activity: inactive

## N/C(=N\O)c1cccc(CNC(=O)c2cn(Cc3cccc(Br)c3)c3ccc(-c4cccc(/C(N)=N/O)c4)cc23)c1
[1]
  EC50: 1000 nM
[2]
  Activity: >95%

## N/C(=N\O)c1cccc(-c2cc3c4c(cn(Cc5cccc(Br)c5)c4c2)CCN(Cc2ccc(/C(N)=N/O)s2)C3=O)c1
[12]
  Activity: <85%

## N/C(=N\O)c1cccc(NC(=O)c2cn(Cc3cccc(Br)c3)c3ccc(-c4cccc(/C(N)=N/O)c4)cc23)c1
[1]
  EC50: 1800 nM
[2]
  Activity: >=95% and >95%

## N/C(=N\O)c1ccc(CNC(=O)c2cn(Cc3cccc(Br)c3)c3ccc(-c4cccc(/C(N)=N/O)c4)cc23)cc1
[1]
  EC50: 2270 nM
[2]
  Activity: >95%

## N/C(=N\O)c1ccc(CN2CCc3cn(Cc4cccc(Br)c4)c4cc(-c5ccc(/C(N)=N/O)cc5)cc(c34)C2=O)cc1
[12]
  Activity: <85%

## N/C(=N\O)c1ccc(CN2CCc3cn(Cc4ccc(Br)cc4)c4cc(-c5ccc(/C(N)=N/O)s5)cc(c34)C2=O)cc1
[5]
  EC50: 790 nM
[1]
  EC50: 610 nM
[6]
  EC50: 330 nM
[7]
  EC50: 160 nM
[8]
  EC50: 2250 nM
[9]
  EC50: 1420 nM
[10]
  inhibition (INH): 100%
[11]
  inhibition (INH): 60%
[2]
  Activity: >95%

## N/C(=N\O)c1cccc(NC(=O)c2nn(Cc3cccc(Br)c3)cc2NC(=O)c2cccc(/C(N)=N/O)c2)c1
[1]
  EC50: 7020 nM

## N/C(=N\O)c1ccc(CN2CCc3cn(Cc4ccc(Br)nc4)c4cc(-c5cccc(/C(N)=N/O)c5)cc(c34)C2=O)cc1
[1]
  EC50: 960 nM
[2]
  Activity: >95%

## C#C[C@@]1(O)[C@H](O)[C@@H](CO)O[C@H]1n1ccc2c(N)ncnc21
[5]
  EC50: 860 nM
[1]
  EC50: 640 nM
[6]
  EC50: 780 nM
[7]
  EC50: 870 nM
[8]
  EC50: 110 nM
[9]
  EC50: 120 nM
[10]
  inhibition (INH): 100%
[11]
  inhibition (INH): 100%

## N/C(=N\O)c1cccc(-c2ccc3c(C(=O)N4CCN(c5cccc(/C(N)=N/O)c5)CC4)cn(Cc4ccc(Br)cc4)c3c2)c1
[1]
  EC50: 1130 nM
[4]
  Activity: inactive

## N/C(=N\O)c1cccc(NC(=O)c2nn(Cc3cccc(Br)c3)c3ccc(-c4cccc(/C(N)=N/O)c4)cc23)c1
[1]
  EC50: 2190 nM
[2]
  Activity: inactive

## N/C(=N\O)c1ccc(CN2CCc3cn(Cc4ccc(Br)cc4)c4cc(-c5cccc(/C(N)=N/O)c5)cc(c34)C2=O)cc1
[5]
  EC50: 1260 nM
[1]
  EC50: 100 nM
[6]
  EC50: 100 nM
[7]
  EC50: 120 nM
[8]
  EC50: 950 nM
[9]
  EC50: 1760 nM
[10]
  inhibition (INH): 97%
[11]
  inhibition (INH): 100%
[2]
  Activity: >95%

## N/C(=N\O)c1cccc(CN2CCc3cn(Cc4cccc(Br)c4)c4cc(-c5cccc(/C(N)=N/O)c5)cc(c34)C2=O)c1
[1]
  EC50: 1350 nM
[2]
  Activity: >95%
